Test results reported in ChEMBL document CHEMBL5505990, “Novel aroyl guanidine anti-trypanosomal compounds that exert opposing effects on parasite energy metabolism” (Eur J Med Chem, 2024).
Calls of active or inactive are those of the source. The calls are words filed in the database; no cut-off is given here.

Columns and labels:
[1] = system: Trypanosoma brucei brucei; assay: Anti-trypanosomal activity against Trypanosoma brucei brucei; format: functional, organism-based
[2] = Selectivity ratio of IC50 for HEK293 cells to IC50 for Trypanosoma brucei brucei; format: toxicity; settings: human, read-out: Ratio IC50
[3] = Cytotoxicity against HEK293 cells; format: toxicity, cell-based; settings: human
[4] = system: Trypanosoma brucei brucei; assay: Disruption of nucleotide metabolism in bloodstream Trypanosoma brucei brucei 427 assessed as accumulation of NDP at 1 uM incubated for 5 hrs; format: functional, organism-based
[5] = system: Trypanosoma brucei brucei; assay: Disruption of nucleotide metabolism in bloodstream Trypanosoma brucei brucei 427 assessed as accumulation of NMP at 1 uM incubated for 5 hrs; format: functional, organism-based
[6] = system: Trypanosoma brucei brucei; assay: Disruption of nucleotide metabolism in bloodstream Trypanosoma brucei brucei 427 assessed as accumulation of nucleosides at 1 uM incubated for 5 hrs; format: functional, organism-based
[7] = system: Trypanosoma brucei brucei; assay: Disruption of nucleotide metabolism in bloodstream Trypanosoma brucei brucei 427 assessed as accumulation of purine/pyrimidine base forms at 1 uM incubated for 5 hrs; format: functional, organism-based
[8] = system: Trypanosoma brucei brucei; assay: Disruption of nucleotide metabolism in bloodstream Trypanosoma brucei brucei 427 assessed as depletion of NTP at 1 uM incubated for 5 hrs; format: functional, organism-based
[9] = system: Trypanosoma brucei brucei; assay: Induction of glycolysis in bloodstream Trypanosoma brucei brucei 427 assessed as increase in pyruvate level at 1 uM incubated for 5 hrs; format: functional
[10] = system: Trypanosoma brucei brucei; assay: Induction of glycolysis in bloodstream Trypanosoma brucei brucei 427 assessed as increase in glycerol level at 1 uM incubated for 5 hrs; format: functional
[11] = system: Trypanosoma brucei brucei; assay: Induction of glycolysis in bloodstream Trypanosoma brucei brucei 427 assessed as increase in succinate level at 1 uM incubated for 5 hrs; format: functional
[12] = system: Trypanosoma brucei brucei; assay: Downregulation of 6-phosphogluconate level in bloodstream Trypanosoma brucei brucei 427 assessed as increase in pyruvate level at 1 uM incubated for 5 hrs; format: functional
[13] = system: Trypanosoma brucei brucei; assay: Downregulation of NADPH level in bloodstream Trypanosoma brucei brucei 427 assessed as increase in pyruvate level at 1 uM incubated for 5 hrs; format: functional
[14] = system: Trypanosoma brucei brucei; assay: Upregulation of carnitine to acetyl-carnitine ratio in bloodstream Trypanosoma brucei brucei 427 assessed as increase in pyruvate level at 1 uM incubated for 5 hrs; format: functional
[15] = system: Trypanosoma brucei brucei; assay: Upregulation of glycolytic flux in bloodstream Trypanosoma brucei brucei 427 assessed as increase in pyruvate level at 1 uM incubated for 5 hrs; format: functional
[16] = system: Trypanosoma brucei brucei; assay: Effect on free CoA level in bloodstream Trypanosoma brucei brucei 427 assessed as increase in pyruvate level at 1 uM incubated for 5 hrs; format: functional
[17] = system: Trypanosoma brucei brucei; assay: Effect on free carnitine level in bloodstream Trypanosoma brucei brucei 427 assessed as increase in pyruvate level at 1 uM incubated for 5 hrs; format: functional
[18] = system: Trypanosoma brucei brucei; assay: Effect on acetyl-CoA level in bloodstream Trypanosoma brucei brucei 427 assessed as increase in pyruvate level at 1 uM incubated for 5 hrs; format: functional
[19] = system: Trypanosoma brucei brucei; assay: Effect on palmitoyl-CoA level in bloodstream Trypanosoma brucei brucei 427 assessed as increase in pyruvate level at 1 uM incubated for 5 hrs; format: functional
[20] = system: Trypanosoma brucei brucei; assay: Effect on stearoyl-CoA level in bloodstream Trypanosoma brucei brucei 427 assessed as increase in pyruvate level at 1 uM incubated for 5 hrs; format: functional
[21] = system: Trypanosoma brucei brucei; assay: Effect on acetyl-carnitine level in bloodstream Trypanosoma brucei brucei 427 assessed as increase in pyruvate level at 1 uM incubated for 5 hrs; format: functional
[22] = Cytotoxicity against HEK293 cells assessed as inhibition of cell viability at 83 uM relative to control; format: toxicity, cell-based; settings: human, read-out: INH
[23] = system: Trypanosoma brucei brucei; assay: Disruption of nucleotide metabolism in bloodstream Trypanosoma brucei brucei 427 assessed as depletion of ATP at 1 uM incubated for 5 hrs; format: functional, organism-based
[24] = system: Trypanosoma brucei brucei; assay: Disruption of nucleotide metabolism in bloodstream Trypanosoma brucei brucei 427 assessed as depletion of GTP at 1 uM incubated for 5 hrs; format: functional, organism-based
[25] = system: Trypanosoma brucei brucei; assay: Disruption of nucleotide metabolism in bloodstream Trypanosoma brucei brucei 427 assessed as depletion of UTP at 1 uM incubated for 5 hrs; format: functional, organism-based
[26] = system: Trypanosoma brucei brucei; assay: Disruption of nucleotide metabolism in bloodstream Trypanosoma brucei brucei 427 assessed as depletion of CTP at 1 uM incubated for 5 hrs; format: functional, organism-based
[27] = system: Trypanosoma brucei brucei; assay: Disruption of nucleotide metabolism in bloodstream Trypanosoma brucei brucei 427 assessed as depletion of deoxy-ATP at 1 uM incubated for 5 hrs; format: functional, organism-based
[28] = system: Trypanosoma brucei brucei; assay: Disruption of nucleotide metabolism in bloodstream Trypanosoma brucei brucei 427 assessed as depletion of deoxy-GTP at 1 uM incubated for 5 hrs; format: functional, organism-based
[29] = system: Trypanosoma brucei brucei; assay: Disruption of nucleotide metabolism in bloodstream Trypanosoma brucei brucei 427 assessed as depletion of deoxy-UTP at 1 uM incubated for 5 hrs; format: functional, organism-based
[30] = system: Trypanosoma brucei brucei; assay: Disruption of nucleotide metabolism in bloodstream Trypanosoma brucei brucei 427 assessed as depletion of deoxy-CTP at 1 uM incubated for 5 hrs; format: functional, organism-based
[31] = system: Trypanosoma brucei brucei; assay: Anti-trypanosomal activity against Trypanosoma brucei brucei at 10 uM relative to control; format: functional

## CCc1ccccc1/N=C(\NCCN1CCOCC1)NC(=O)c1ccccc1OC
[1]
  IC50: > 10 µM

## CCc1ccccc1/N=C(\NCCN1CCOCC1)NC(=O)c1ccccc1Br
[1]
  IC50: > 10 µM

## CCc1ccccc1/N=C(\NCCCN1CCOCC1)NC(=O)c1ccccc1
[1]
  IC50: > 10 µM

## CCc1ccccc1/N=C(\NCCN1CCOCC1)NC(=O)c1ccc(Br)cc1
[2]
  selectivity ratio: > 9.5
[1]
  IC50: 8.7 µM
[3]
  IC50: > 83 µM

## O=C(N/C(=N/c1ccccc1Cl)NCCN1CCOCC1)c1ccccc1
[2]
  selectivity ratio: > 11
[1]
  IC50: 7.5 µM
[3]
  IC50: > 83 µM

## CCc1ccccc1/N=C(\NCCN1CCOCC1)NC(=O)c1ccccc1Cl
[1]
  IC50: > 10 µM

## CCc1ccccc1/N=C(\NCCN1CCOCC1)NC(=O)c1cccc(C)c1
[2]
  selectivity ratio: > 64
[1]
  IC50: 1.3 µM
[3]
  IC50: > 83 µM

## CCc1ccccc1/N=C(\NCCN1CCOCC1)NC(=O)c1ccc(F)cc1
[2]
  selectivity ratio: 46
[1]
  IC50: 1.8 µM
[3]
  IC50: > 83 µM
[4]
  Activity: inactive
[5]
  Activity: inactive
[6]
  Activity: inactive
[7]
  Activity: inactive
[8]
  Activity: inactive
[9]
  Activity: inactive
[10]
  Activity: inactive
[11]
  Activity: inactive
[12]
  Activity: inactive
[13]
  Activity: inactive
[14]
  Activity: inactive
[15]
  Activity: inactive
[16]
  Activity: inactive
[17]
  Activity: inactive
[18]
  Activity: Active
[19]
  Activity: inactive
[20]
  Activity: inactive
[21]
  Activity: inactive

## CCc1ccccc1/N=C(\NCCN1CCOCC1)NC(=O)c1ccc(Cl)cc1
[2]
  selectivity ratio: > 52
[1]
  IC50: 1.6 µM
[3]
  IC50: > 83 µM

## CCc1ccccc1/N=C(\NCCN1CCOCC1)NC(=O)c1ccc(C(C)C)cc1
[1]
  IC50: 10 µM
[22]
  cytotoxicity at 83 µM: 52%

## CCCc1ccc(C(=O)N/C(=N/c2ccccc2CC)NCCN2CCOCC2)cc1
[2]
  selectivity ratio: > 9
[1]
  IC50: 9 µM
[3]
  IC50: > 83 µM

## CCc1ccccc1/N=C(\NCCN1CCOCC1)NC(=O)c1ccccc1F
[2]
  selectivity ratio: 1
[1]
  IC50: 7 µM
[3]
  IC50: > 10 µM

## COc1ccccc1/N=C(\NCCN1CCOCC1)NC(=O)c1ccccc1
[1]
  IC50: > 10 µM

## CCc1ccccc1/N=C(\NCCN(C)C)NC(=O)c1ccccc1
[1]
  IC50: > 10 µM

## CCc1ccccc1/N=C(\NCCN1CCOCC1)NC(=O)c1cccc(C(C)=O)c1
[2]
  selectivity ratio: 1
[1]
  IC50: > 83 µM
[3]
  IC50: > 83 µM

## O=C(N/C(=N/c1ccccc1F)NCCN1CCOCC1)c1ccccc1
[1]
  IC50: > 10 µM

## CCc1ccccc1/N=C(\NCCN1CCOCC1)NC(=O)c1ccc(F)c(C)c1
[1]
  IC50: 2.4 µM
[22]
  cytotoxicity at 83 µM: 101%

## CCc1ccccc1/N=C(\NCCN1CCOCC1)NC(=O)c1cccc(O)c1
[2]
  selectivity ratio: 1
[1]
  IC50: > 83 µM
[3]
  IC50: > 83 µM

## O=C(N/C(=N/c1ccccc1Br)NCCN1CCOCC1)c1ccccc1
[2]
  selectivity ratio: > 19
[1]
  IC50: 4.2 µM
[3]
  IC50: > 83 µM
[23]
  Activity: Active
[24]
  Activity: Active
[25]
  Activity: Active
[26]
  Activity: Active
[27]
  Activity: Active
[28]
  Activity: Active
[29]
  Activity: Active
[30]
  Activity: Active
[4]
  Activity: Active
[5]
  Activity: Active
[6]
  Activity: Active
[7]
  Activity: Active
[9]
  Activity: Active
[10]
  Activity: Active
[11]
  Activity: Active
[12]
  Activity: Active
[13]
  Activity: Active
[14]
  Activity: Active
[15]
  Activity: Active
[16]
  Activity: Active
[17]
  Activity: Active
[18]
  Activity: inactive
[19]
  Activity: Active
[20]
  Activity: Active
[21]
  Activity: Active

## CC(C)c1ccccc1/N=C(\NCCN1CCOCC1)NC(=O)c1ccccc1
[31]
  inhibition at 10 µM: 75%
[22]
  cytotoxicity at 83 µM: 63%

## CCc1ccccc1/N=C(\NCCN1CCN(C)CC1)NC(=O)c1ccccc1
[1]
  IC50: > 10 µM

## CCc1ccccc1/N=C(\NCCN1CCOCC1)NC(=O)c1ccc(OC)cc1
[2]
  selectivity ratio: > 8.8
[1]
  IC50: 9.4 µM
[3]
  IC50: > 83 µM

## CCc1ccccc1/N=C(\NCCN1CCOCC1)NC(=O)c1ccccc1C
[1]
  IC50: > 10 µM

## CCc1ccccc1/N=C(\NCCN1CCCCC1)NC(=O)c1ccccc1
[1]
  IC50: > 10 µM

## CCc1ccccc1/N=C(\NCCN1CCOCC1)NC(=O)c1ccc(F)c(F)c1
[1]
  IC50: 1.8 µM
[22]
  cytotoxicity at 83 µM: 86%
[23]
  Activity: Active
[24]
  Activity: Active
[25]
  Activity: Active
[26]
  Activity: Active
[27]
  Activity: Active
[28]
  Activity: Active
[29]
  Activity: Active
[30]
  Activity: Active
[9]
  Activity: Active
[10]
  Activity: Active
[11]
  Activity: Active
[12]
  Activity: Active
[13]
  Activity: Active
[14]
  Activity: Active
[15]
  Activity: Active
[16]
  Activity: Active
[17]
  Activity: Active
[18]
  Activity: inactive
[19]
  Activity: Active
[20]
  Activity: Active
[21]
  Activity: Active

## O=C(N/C(=N/c1ccccc1)NCCN1CCOCC1)c1ccccc1
[1]
  IC50: > 10 µM

## CCc1ccccc1/N=C(\NCCN1CCCC1)NC(=O)c1ccccc1
[1]
  IC50: > 10 µM

## O=C(N/C(=N/c1ccccc1C(F)(F)F)NCCN1CCOCC1)c1ccccc1
[31]
  inhibition at 10 µM: 59%
[22]
  cytotoxicity at 83 µM: 63%

## Cc1ccccc1/N=C(\NCCN1CCOCC1)NC(=O)c1ccccc1
[3]
  IC50: > 83 µM
[31]
  inhibition at 10 µM: 75%
[4]
  Activity: inactive
[5]
  Activity: inactive
[6]
  Activity: inactive
[7]
  Activity: inactive
[8]
  Activity: inactive
[9]
  Activity: inactive
[10]
  Activity: inactive
[11]
  Activity: inactive
[12]
  Activity: inactive
[13]
  Activity: inactive
[14]
  Activity: inactive
[15]
  Activity: inactive
[16]
  Activity: inactive
[17]
  Activity: inactive
[18]
  Activity: Active
[19]
  Activity: inactive
[20]
  Activity: inactive
[21]
  Activity: inactive

## N#Cc1ccccc1/N=C(\NCCN1CCOCC1)NC(=O)c1ccccc1
[1]
  IC50: > 10 µM

## CCCc1ccccc1/N=C(\NCCN1CCOCC1)NC(=O)c1ccccc1
[31]
  inhibition at 10 µM: 72%
[22]
  cytotoxicity at 83 µM: 58%

## CCc1ccccc1/N=C(\NCCN1CCOCC1)NC(=O)c1cccc(OC)c1
[2]
  selectivity ratio: > 52
[1]
  IC50: 1.6 µM
[3]
  IC50: > 83 µM

## CCc1ccccc1/N=C(\NCCN1CCOCC1)NC(=O)c1cccc(F)c1
[2]
  selectivity ratio: > 52
[1]
  IC50: 1.6 µM
[3]
  IC50: > 83 µM

## CCc1ccccc1/N=C(\NCCN1CCOCC1)NC(=O)c1ccc(F)c(OC)c1
[1]
  IC50: 0.75 µM
[22]
  cytotoxicity at 83 µM: 94%
